# Experiments:
# U251 = experiment: Cell viability determination (MTT), U251; format: cell-based; conditions: Homo sapiens, U-251, U251, glioma, 48 hour incubation, read-out: Drug concentrations for 50% cell viability (IC50)
# Source text: (§1) Cell Culture: A549, DLD1, SW480, LOVO, HT-29, Hela, U-20S, MES-SA, SK-MEL-28, Panc-1, DU-145, CNE, U251, Eca-109, MGC80-3, QGY-7701, BEL-7404, PLC/PRF/5, Huh-7, and SGC-7901 cells were maintained in Dulbecco's Modified Eagle Medium (DMEM) (imported from Invitrogen, Carlsbad, Calif., USA) supplemented with 10% fetal bovine serum (FBS) (Si Ji Qing, Hangzhou, China) and 1% penicillin/streptomycin/amphotericin B (imported from Invitrogen, Carlsbad, Calif., USA).
# (§2) Cell Viability Determination: Popular MTT method (Archives of Biochemistry and Biophysics, 1993, 303: 474-482) was used to screen the in vitro effects of the invented drugs. Briefly, 5000 to 10000 cells were inoculated per well in a 96-well plate. After overnight incubation, drug was added to the wells at final concentration of 10 μM, […], 2.5 μM, 1.25 μM, or 1 μM, 0.75 μM, 0.5 μM and 0.25 μM in complete culture medium. Each dose level covered 4 equivalent wells. After 48 hour incubation, one tenth volume of 5 mg/mL MTT (thiazolyl blue tetrazolium bromide, Sigma-Aldrich) stock solution was added, and incubation was continued for 2 hours. Then medium was removed and 100 μL of isopropanol solution comprising 86% isopropanol, 4% aqueous 1 N HCl and 10% aqueous SDS solution (10% in concentration) was added. The absorbance of each well at 570 nm wavelength was measured by a micro-plate reader after gentle shaking for 20 minutes. Drug concentrations of 50% cell viability (IC50) were calculated by LOGIT method.
# SK-MEL-28 = experiment: Cell viability determination (MTT), SK-MEL-28; format: cell-based; conditions: Homo sapiens, SK-MEL-28, malignant melanoma, 48 hour incubation, read-out: Drug concentrations for 50% cell viability (IC50)
# Source text: as §1, §2
# U-20S = experiment: Cell viability determination (MTT), U-20S; format: cell-based; conditions: osteosarcoma, 48 hour incubation, read-out: Drug concentrations for 50% cell viability (IC50)
# Source text: as §1, §2
# Hela = experiment: Cell viability determination (MTT), Hela; format: cell-based; conditions: Homo sapiens, cervical cancer, 48 hour incubation, read-out: Drug concentrations for 50% cell viability (IC50)
# Source text: as §1, §2
# Panc-1 [1] = experiment: Cell viability determination (MTT), Panc-1; format: cell-based; conditions: Homo sapiens, Panc-1, pancreatic cancer, 48 hour incubation, read-out: Drug concentrations for 50% cell viability (IC50)
# Source text: as §1, §2
# DU-145 = experiment: Cell viability determination (MTT), DU-145; format: cell-based; conditions: Homo sapiens, DU-145, prostate cancer, 48 hour incubation, read-out: Drug concentrations for 50% cell viability (IC50)
# Source text: as §1, §2
# LOVO = experiment: Cell viability determination (MTT), LOVO; format: cell-based; conditions: Homo sapiens, colorectal cancer, 48 hour incubation, read-out: Drug concentrations for 50% cell viability (IC50)
# Source text: as §1, §2
# SW480 = experiment: Cell viability determination (MTT), SW480; format: cell-based; conditions: Homo sapiens, SW480, colorectal cancer, 48 hour incubation, read-out: Drug concentrations for 50% cell viability (IC50)
# Source text: as §1, §2
# A549 = experiment: Cell viability determination (MTT), A549; format: cell-based; conditions: Homo sapiens, A549, lung cancer, 48 hour incubation, read-out: Drug concentrations for 50% cell viability (IC50)
# Source text: as §1, §2
# MES-SA = experiment: Cell viability determination (MTT), MES-SA; format: cell-based; conditions: Homo sapiens, leiomyosarcoma, 48 hour incubation, read-out: Drug concentrations for 50% cell viability (IC50)
# Source text: as §1, §2
# CNE = experiment: Cell viability determination (MTT), CNE; format: cell-based; conditions: Homo sapiens, nasopharyngeal cancer, 48 hour incubation, read-out: Drug concentrations for 50% cell viability (IC50)
# Source text: as §1, §2
# DLD1 [2] = experiment: Effect of NQ01 inhibitor (dicumarol) on biological activity, MTT, DLD1; format: cell-based; conditions: DLD1 (significant NQ01 enzymatic activity); dicumarol 40 μM; 48 hr
# Description: as §2
# (§3) Effect of NQ01 Inhibitor (Dicumarol) on the Biological Activities of 2-acetyl-4,9-diacetoxy-naphtho[2,3-b]furan and Compound XIII (Part B and C of FIG. 4):MTT assay was used for this experiment. Same procedure as described in “Cell Viability Determination” section. […] The viability of cells at each well was read out after 48 hr incubation in cell culture incubator.
# Panc-1 [3] = experiment: Effect of NQ01 inhibitor (dicumarol) on biological activity, MTT, Panc-1; format: cell-based; conditions: Panc-1 (no significant NQ01 enzymatic activity); dicumarol 40 μM; 48 hr
# Description: as §2, §3
# DLD1 [4] = experiment: Cell viability determination (MTT), DLD1; format: cell-based; conditions: Homo sapiens, DLD-1, DLD1, colorectal cancer, 48 hour incubation, read-out: Drug concentrations for 50% cell viability (IC50)
# Source text: as §1, §2
# [5] = Human plasma incubation, HPLC analysis of degradation products; format: in vitro ADME; conditions: 20 μM in human plasma, 37° C., 2 hours
# Description: The compounds of formula I were incubated in human plasma at 37° C. for 2 hours, and then the mixtures were treated with acetonitrile to remove protein and the resulting supernatants were analyzed by HPLC (FIG. 2). […] Without wishing to be bound by a particular theory, it is believed that, although not detected due to instability in a protein-free environment, the direct hydrolysis product of a compound of formula I, 4,9-dihydroxy-naphtho[2,3-b]furan, and its partially oxidized product semihydroquinone (shown in scheme 6) co-exist in vivo and play important biological roles.
# HPLC column: Waters Sunfire C18, 250×4.60 mm 5 micron; Mobile phase: buffer A, 90% 5 mM potassium phosphate buffer, pH 6.8, 10% acetonitrile; buffer B, 15% 5 mM potassium phosphate buffer, pH 6.8, 85% acetonitrile; Detector: Waters 2998 Photodiode Array Detector.
# Gradient B: 0-3 min, 50% buffer B, 3-5 min, 50%-100% buffer B, 5-18 min, 100% buffer B, 18-22 min, 100%-50% buffer B, 22-25 min, […]; flow rate, 1 ml/min. Analysis of the 4,9-dihydroxy-naphtho[2,3-b]furan compounds (FIG. 1)
# 10 mM of a compound of formula I or its analog in DMSO (however, compound VI was in DMF) was diluted with human plasma to 20 μM, and the resulting mixtures were incubated at 37° C. for 2 hours. To plasma sample, 9 times volume of acetonitrile was added. The resulting mixtures were vortexed and incubated in dry ice for 30 minutes or in −20° C. freezer for 3 hours, then centrifuged, and supernatant was used for HPLC analysis using gradient B.
# Eca-109 = experiment: Cell viability determination (MTT), Eca-109; format: cell-based; conditions: Homo sapiens, Eca-109, esophageal cancer, 48 hour incubation, read-out: Drug concentrations for 50% cell viability (IC50)
# Source text: as §1, §2
# QGY-7701 = experiment: Cell viability determination (MTT), QGY-7701; format: cell-based; conditions: QGY7701, QGY-7701, liver cancer, 48 hour incubation, read-out: Drug concentrations for 50% cell viability (IC50)
# Source text: as §1, §2
# [6] = Metabolism in biological fluid (human whole blood, cancer cell lysate, liver microsomes, mouse oral uptake), HPLC; format: in vitro ADME; conditions: liver microsomes or mouse oral uptake system, 20 μM, 37° C.
# Description: Second, a major metabolite found after incubation of compound I, III, IV, VI or XIII in biological fluid, such as human whole blood, or cancer cell lysate, or liver microsomes, or mouse oral uptake system, is compound XII (FIG. 3). Similarly, a major metabolite found after incubation of compound V, VII or XIV in biological fluid is 2-(1-hydroxy-n-propyl)-naphtho[2,3-b]furan-4,9-dione (data not shown). Reduction of the position 2 substituent carbonyl group is part of quinone redox reaction as evidenced by the β-lapachone effect on the formation of compound XII in the compound XIII incubation mixture of human whole blood (part D of FIG. 3). The possible reaction mechanism is proposed as shown in scheme 7, in which the two electron reduction could be NQ01 catalyzed reduction or two successive cytochrome b5 reductase or p450 reductase catalyzed reaction. As substrate of these enzymes, β-lapachone could compete for the two electron or single electron reaction and thus reduced formation of the metabolism product.
# Crystalline or amorphous solid of compound was mixed with excipient and suspended in 0.5% carboxymethylcellulose (CMC) solution in a mortar. Then the mixture was orally administered into ICR mouse at the predetermined dosage. At the predetermined time point, blood was drawn from the mouse and stored in the vial containing heparin. The blood samples were centrifuged at 6,000 rpm for 10 min, and plasmas were separated. To each plasma sample, 9 times volume of acetonitrile/methyl trifluoromethanesulfonate (1000:1) or acetonitrile/concentrated HCl (1000:1) was added. The resulting mixtures were vortexed and incubated in dry ice for 30 minutes or in −20° C. freezer for 3 hours, then centrifuged, and supernatants were separated for HPLC analysis using gradient B.
# The biological systems for in vitro metabolism study include: human whole blood stabilized with sodium citrate; cancer cell lysate (obtained using freeze-thaw method, 10 mg/ml in protein concentration for use); liver microsomes with NADPH generation system (prepared according to the protocol provided by iPhase Pharma, Beijing, China);
# 10 mM of a compound of formula I or its analog or compound XIII in DMSO (however, compound VI was in DMF) was added into the biological system to a final concentration of 20 μM. The mixtures were incubated at 37° C. for predetermined time. To each sample, then 9 times volume of acetonitrile was added. The resulting mixtures were vortexed and incubated in dry ice for 30 minutes or in −20° C. freezer for 3 hours, then centrifuged, and supernatants were separated for HPLC analysis using gradient B.
# MGC80-3 = experiment: Cell viability determination (MTT), MGC80-3; format: cell-based; conditions: Homo sapiens, MGC-803, MGC80-3, stomach cancer, 48 hour incubation, read-out: Drug concentrations for 50% cell viability (IC50)
# Source text: as §1, §2
SMILES,IC50 (U251) [nM],IC50 (SK-MEL-28) [nM],IC50 (U-20S) [nM],IC50 (Hela) [nM],IC50 (Panc-1 [1]) [nM],IC50 (DU-145) [nM],IC50 (LOVO) [nM],IC50 (SW480) [nM],IC50 (A549) [nM],IC50 (MES-SA) [nM],IC50 (CNE) [nM],Dicumarol effect on anticancer activity (DLD1 [2]),Dicumarol effect on anticancer activity (Panc-1 [3]),IC50 (DLD1 [4]) [nM],Degradation / detectable products after incubation in human plasma [5],IC50 (Eca-109) [nM],IC50 (QGY-7701) [nM],Major metabolite found after incubation in biological fluid [6],IC50 (MGC80-3) [nM]
"CC(=O)Oc1c2ccccc2c(OC(C)=O)c2oc(C(C)=O)cc12 [2-acetyl-4,9-bis(acetoxy)-naphtho[2,3-b]furan, reference compound]",1080,300,1000,1200,1500,1000,1100,860,1700,600,1500,dicumarol attenuates anticancer activities,dicumarol showed little effect,1800,the only detectable product was compound XIII,1400,–,–,–
"CC(=O)c1cc2c(OC(=O)C(C)(C)C)c3ccccc3c(OC(=O)C(C)(C)C)c2o1 [compound II, 2-acetyl-4,9-Bis(pivaloxy)-naphtho[2,3-b]furan]",–,–,–,–,3000,–,> 4000,> 4000,–,–,–,–,–,> 4000,barely degraded,> 4000,–,–,–
CC(=O)c1cc2c(OC(=O)C(C)C)c3ccccc3c(OC(=O)C(C)C)c2o1 [compound I],< 2500,–,5700,< 2500,< 2500,< 2500,2800,< 2500,< 2500,< 2500,2500,–,–,< 2500,the detectable products were compound XIII and partially degraded products,5500,2870,compound XII,2500
"CC(=O)c1cc2c(O)c3ccccc3c(OC(=O)CNC(=O)OC(C)(C)C)c2o1 [compound III, 2-acetyl-4-hydroxy-9-[(tert-butoxycarbonyl)amino]acetoxy-naphtho[2,3-b]furan]",2070,890,2500 to 5000,1250 to 2500,1770,1250 to 2500,3100,1550,1250 to 2500,470,1870,–,–,1030,–,2550,4800,compound XII,1650
"CC(=O)c1cc2c(OC(=O)C(Cl)Cl)c3ccccc3c(OC(=O)C(Cl)Cl)c2o1 [compound VI, 2-acetyl-4,9-Bis(dichloroacetoxy)-naphtho[2,3-b]furan]",700,–,800,400,1000,1000,1500,600,400,270,1100,–,–,900,–,800,–,compound XII,600

# Source: patent publication US9150530B2, “Esters of 4, 9-dihydroxy-naphtho [2, 3-b] furans for disease therapies” (Zhoushan Haizhongzhou Xinsheng Pharmaceuticals Co., Ltd., priority 2011, dated 2015)
